In ChEMBL document CHEMBL1131493, “Inhibitors of farnesyl protein transferase. 4-Amido, 4-carbamoyl, and 4-carboxamido derivatives of 1-(8-chloro-6,11-dihydro-5H-benzo[5,6]- cyclohepta[1,2-b]pyridin-11-yl)piperazine and 1-(3-bromo-8-chloro-6,11- dihydro-5H-benzo[5,6]cyclohepta[1,2-b]pyridin-11-yl)piperazine” (J Med Chem, 1998):

Assays:
[1] = biological target: T1, Protein farnesyltransferase (Homo sapiens, UniProt P49354+P49356); experiment: In vitro inhibition of farnesyltransferase farnesylation of the H-ras oncogene; assay type: protein-complex assay; parameters: Inhibition: concentration or dose not given beside the values
[2] = biological target: geranylgeranyltransferase type-I (Rattus norvegicus, UniProt P53610+Q04631); experiment: Inhibition of rat Geranylgeranyl transferase (GGPT); assay type: protein-complex assay
[3] = biological target: T1, Protein farnesyltransferase; experiment: Inhibition of Farnesyltransferase from Ras-CVLS or Ras-CVLL in Cos-7 monkey kidney cells; assay type: cell-based, Chlorocebus aethiops

Row | Structure (SMILES) | IC50 [1] [nM] | IC50 [3] [µM] | other results
1 | O=C(Nc1cccnc1)N1CCN(C2c3ccc(Cl)cc3CCc3cc(Br)cnc32)CC1 (stereo not drawn) | 210 | 3.7 | IC50 [2]: > 10 µM
2 | O=C(Cc1cccnc1)N1CCN(C(=O)c2ccc(Cl)cc2)CC1 |  |  | Inhibition [1]: 32%
3 | CCN1CCC(CC(=O)N2CCN(C3c4ccc(Cl)cc4CCc4cccnc43)CC2)CC1 (stereo not drawn) | 1270 |  | 
4 | O=C(Oc1ccc[n+]([O-])c1)N1CCN(C2c3ccc(Cl)cc3CCc3cc(Br)cnc32)CC1 (stereo not drawn) | 280 | 6 | 
5 | CC(C)(C)OC(=O)N1CCC(C(=O)N2CCN(C3c4ccc(Cl)cc4CCc4cccnc43)CC2)CC1 (stereo not drawn) |  |  | Inhibition [1]: 20%
6 | O=C(Cc1ccccc1)N1CCN(C2c3ccc(Cl)cc3CCc3cccnc32)CC1 (stereo not drawn) |  | 12 | 
7 | CC(C)(C(=O)N1CCN(C2c3ccc(Cl)cc3CCc3cc(Br)cnc32)CC1)c1cc[n+]([O-])cc1 (stereo not drawn) | 390 | 5 | 
8 | CSCC[C@H](N)C(=O)N1CCC(CC(=O)N2CCN(C3c4ccc(Cl)cc4CCc4cccnc43)CC2)CC1 (stereo partly drawn) | 1890 |  | 
9 | O=C(Cc1ccc(Br)cc1)N1CCN(C2c3ccc(Cl)cc3CCc3cccnc32)CC1 (stereo not drawn) |  | 5.1 | IC50 [2]: > 50 µM
10 | O=C(Oc1ccccc1)N1CCN(C2c3ccc(Cl)cc3CCc3cccnc32)CC1 (stereo not drawn) | 800 |  | 
11 | O=C(Oc1cccnc1)N1CCN(C2c3ccc(Cl)cc3CCc3cccnc32)CC1 (stereo not drawn) | 500 | 3 | 
12 | COCC[C@H]1CN(C2c3ccc(Cl)cc3CCc3cc(Br)cnc32)CCN1C(=O)CC1CCNCC1 (stereo partly drawn) | 69 |  | 
13 | O=C(Oc1cccnc1)N1CCN([C@@H]2c3ccc(Cl)cc3CCc3cccnc32)CC1 | 1280 | 6.9 | 
14 | O=C(Cc1cc[n+]([O-])cc1)N1CCN(C2c3ccc(Cl)cc3CCc3c(Cl)ccnc32)CC1 (stereo not drawn) | 330 |  | 
15 | Clc1ccc2c(c1)CCc1cccnc1C2N1CCN(CCc2cccnc2)CC1 (stereo not drawn) |  |  | Inhibition [1]: 23%
16 | CC(=O)N1CCC(CC(=O)N2CCN(C3c4ccc(Cl)cc4CCc4cccnc43)CC2)CC1 (stereo not drawn) | 870 | 2.7 | 
17 | O=C(Nc1ccccc1)N1CCN(C2c3ccc(Cl)cc3CCc3cccnc32)CC1 (stereo not drawn) | 1090 |  | IC50 [2]: > 40 µM
18 | O=C(Nc1cc[n+]([O-])cc1)N1CCN(C2c3ccc(Cl)cc3CCc3cc(Br)cnc32)CC1 (stereo not drawn) | 210 | 5.8 | 

The next lines start with results.

Row | IC50 [1] [nM] | Structure (SMILES) | IC50 [3] [µM] | other results
19 | 87 | O=C(CC1CCNCC1)N1CCN([C@@H]2c3ccc(Cl)cc3CCc3cc(Br)cnc32)CC1 | 0.56 | 
20 | 4100 | O=C(NCc1ccccc1)N1CCN(C2c3ccc(Cl)cc3CCc3cccnc32)CC1 (stereo not drawn) |  | 
21 | 2100 | CN1CCCC(OC(=O)N2CCN(C3c4ccc(Cl)cc4CCc4cccnc43)CC2)C1 (stereo not drawn) |  | 
22 | 1770 | O=C(N1CCN(C2c3ccc(Cl)cc3CCc3cc(Br)cnc32)CC1)n1ccnc1 (stereo not drawn) |  | 
23 | 11300 | O=C(C1CCNCC1)N1CCN(C2c3ccc(Cl)cc3CCc3cccnc32)CC1 (stereo not drawn) |  | 
24 | 300 | CC(C)(C(=O)N1CCN(C2c3ccc(Cl)cc3CCc3cc(Br)cnc32)CC1)c1cccnc1 (stereo not drawn) | 0.9 | 
25 | 4900 | CC(C(=O)N1CCN(C2c3ccc(Cl)cc3CCc3cccnc32)CC1)c1cccnc1 (stereo not drawn) |  | 
26 | 7000 | CNC(=O)N1CCC[C@@H](CC(=O)N2CCN(C3c4ccc(Cl)cc4CCc4cccnc43)CC2)C1 (stereo partly drawn) |  | 
27 | 1100 | N[C@@H](CO)C(=O)N1CCC(CC(=O)N2CCN(C3c4ccc(Cl)cc4CCc4cccnc43)CC2)CC1 (stereo partly drawn) |  | 
28 | 108 | CC(C)(C)NC(=O)N1CCC(CC(=O)N2CCN(C3c4ccc(Cl)cc4CCc4cc(Br)cnc43)CC2)CC1 (stereo not drawn) |  | 
29 | 820 | NC(=O)N1CCC(CC(=O)N2CCN(C3c4ccc(Cl)cc4CCc4cccnc43)CC2)CC1 (stereo not drawn) |  | 
30 | 100 | CCCNC(=O)N1CCC(CC(=O)N2CCN(C3c4ccc(Cl)cc4CCc4cc(Br)cnc43)CC2)CC1 (stereo not drawn) | 1.5 | IC50 [2]: > 33 µM
31 | 54 | CN1CCCC(NC(=O)N2CCN(C3c4ccc(Cl)cc4CCc4cc(Br)cnc43)CC2)C1 (stereo not drawn) |  | 
32 | 1400 | NC(=O)N1CCCC2C(C(=O)N3CCN(C4c5ccc(Cl)cc5CCc5cc(Br)cnc54)CC3)CCCC21 (stereo not drawn) |  | 
33 | 4800 | CC(C)(C)OC(=O)NCC(=O)N1CCN(C2c3ccc(Cl)cc3CCc3cccnc32)CC1 (stereo not drawn) |  | 
34 | 2780 | CC(S)C(=O)NCC(=O)N1CCN(C2c3ccc(Cl)cc3CCc3cccnc32)CC1 (stereo not drawn) |  | 
35 | 300 | CN1CCCC(OC(=O)N2CCN(C3c4ccc(Cl)cc4CCc4cc(Br)cnc43)CC2)C1 (stereo not drawn) |  | 
36 | 2200 | O=C(Nc1ccc[n+]([O-])c1)N1CCN(C2c3ccc(Cl)cc3CCc3cccnc32)CC1 (stereo not drawn) |  | 
37 | 1000 | CC(C)(C)NC(=O)N1CCC(CC(=O)N2CCN(C3c4ccc(Cl)cc4CCc4cccnc43)CC2)CC1 (stereo not drawn) |  | 
38 | 7400 | CC(C)(C)OC(=O)N1CCC(CC(=O)N2CCN(C3c4ccc(Cl)cc4CCc4cccnc43)CC2)CC1 (stereo not drawn) |  | 
39 | 920 | CCNC(=O)N1CCC(CC(=O)N2CCN(C3c4ccc(Cl)cc4CCc4cccnc43)CC2)CC1 (stereo not drawn) |  | 
